What was measured:
[1] = tested on: mice; experiment: Acute toxicity, mouse; assay type: in vivo; settings: 24 hours
Experimental: (§1) The acute toxicity of the compounds of the invention was examined by the following method.
(§2) Male ddy-strain 5-week old mice and male Wistar-strain 8 week old rats, five per group, were used as experimental animals. Each of the compounds was dissolved in saline and administered perorally, and the toxicity of the compound was assessed 24 hours after the administration.

[2] = Acute toxicity, mouse; assay type: in vivo; settings: in vivo, po, Table 6, p.o., read-out: Presumed LD50
Experimental: as §1, §2

[3] = tested on: human neuroblastoma cell line GOTO; experiment: Activity on neuroblastoma cell line GOTO (cell number, number and length of neurites); assay type: cell-based; settings: for Number of cells (mean ± S.E.): control 5.30 ± 0.23
Experimental: (§3) The biological activities in vitro of the compounds of formula (I) on cells of the nervous system were tested. The cells tested were human neuroblastoma cell line GOTO [see Sekiguchi, M., Oota, T., Sakakibara, K., Inui, N. & Fujii, G., Japan. J. Exp. Med., 49, 67-83 (1979)], and neuroblastoma cell line NB-1 [see Miyake, S., Shimo, Y., Kitamura, T., Nojyo, Y., Nakamura, T., Imkashuku, S. and Abe, T., The Autonomic Nervous System, 10, 115-120 (1973)], and mouse neuroblastoma cell line neuro-2a (Dainippon Pharmaceutical Co., Ltd.) which have been established as the cells of the nervous system. The above neuve cells were grown in an incubator at 37° C. in the presence of 5% carbon dioxide gas exponentially, and then cultivated for a certain period of time together with the compounds of formula (I).
The effect of the compounds of this invention on neuroblastoma cells was examined by the following method.
A culture medium [composed of 45% of RPMI 1640 medium, 45% modified Eagle's medium (MEM) and 10% of fetal calf serum (FCS) and containing penicillin G sodium (100 units/ml) and streptomycin sulfate (100 microgram/ml)] containing neurobalstoma cell line GOTO in the logarithmic growth period was poured in an amount of 2 ml each into polystyrene dishes (35 mm; made by Corning Co.) so that the cell concentration was 2 to 6×10^4 cells per dish, and the cells were cultured for 1 to 2 days in a carbon dioxide gas incubator containing 5% of carbon dioxide gas in air at 37° C. Then, the culture fluid was removed, and 2 ml of a fresh serum-free culture fluid (consisting of 50% of RPMI medium and 50% of MEM medium and containing penicillin G sodium and streptomycin sulfate in the same amounts as above) was added. At the same time, a presterilized PBS solution (phosphate buffered saline) of each of the test compounds in various concentrations was added to each of the dishes. After culturing for 24 hours, the number of living cells was counted. Furthermore, the culture was photographed, and from the photos, the number and length of neurites per cell were measured. The numer of living cells was counted for 3 to 6 dishes by resistance to staining with erythrosine dye. The number and length of the neurites were measured with regard to 6 photos (more than 200 cells per photo).

[4] = tested on: mouse neuroblastoma cell line neuro-2a; experiment: Activity on neuro-2a, cells with outgrown neurites; assay type: cell-based
Experimental: In order to examine the effects of the test compounds, the following method was also employed.
Mouse neuro 2a cells in the logarithmic growth period in the Dulbecco's modified Eagle's medium (DMEM) containing 10% FCS was seeded in a 48-well plate so that the number of cells was 1,000 cells/well, and cultured for one day in 0.25 ml of the culture fluid in each well. The culture medium was then replaced by a medium containing each of the test compounds and FCS, and the cells were further cultured for 24 hours. Then, a 4% aqueous glutaraldehyde solution in the same amount as the medium (0.25 ml) was added, and the culture fluid was left to stand at room temperature for 2 hours to fix the cells. After washing with water, a 0.05% aqueous solution of methylene blue was added to stain the cells. Under a microscope, the number of cells containing outgrown neurites (cells having at least one neutrite with a length at least two times as large as the long diameter of the cell) was counted visually, and the proportion of these cells in the entire cells was calculated. The well was observed over 5 or more visual fields (at least 2% of the entire surface area of the well) continuous to the left and right from a mark put at the center of the well, and more than 200 cells was counted. One drug compound was used in 6 different concentrations at most, and three runs were conducted for each concentration.

[5] = tested on: mouse neuroblastoma cell line neuro-2a; experiment: Activity on cell line neuro-2a (simple method); assay type: cell-based
Experimental: as §3, with “(I). […]” for “(I).”
As a simple method of evaluation, the number of cells have neurites with a length equal to, or larger than, the long diameter of the cell was divided by the total number of cells.

[6] = tested on: rats with crushed sciatic nerves; experiment: Curative effect on rats with crushed sciatic nerves; assay type: in vivo, rat (male Wistar)
Experimental: Curative effect on rats with crushed sciatic nerves:
The curing effect of the compound (I) of the invention was tested on rats having crushed scietic nerves as a model of peripheral nervous disorder using (1) a change in the action of the hind paw with the crushed sciatic nerves and (2) a change in the weight of the muscle as an index of the course of degeneration and regeneartion of peripheral nerves.
In the experiment, male Wistar rats (6 weeks old), seven per group, were used. The sciatic nerves were crushed by a method similar to the method of Yamatsu et al. (see Kiyomi Yamatsu, Takenori Kaneko, Akifumi Kitahara and Isao Ohkawa, Journal of Japanese Pharmacological Society, 72, 259-268 (1976) and the method of Hasegawa et al. (see Kazuo Hasegawa, Naoji Mikuni and Yutaka Sakai, Journal of Japanese Pharmacological Society, 74, 721-734 (1978). Specifically, under anesthesia with pentobarbital (40 mg/kg, i.p.), the left side sciatic nerve was exposed at the femur and that site of the exposed scietic nerve which was 5 mm to the center from the branched part between the N. tibialis and the N. suralis was crushed using a modified artery, klomme, having a width of 2 mm and a gap of 0.1 mm. After the operation, the rats were assigned to the test groups at random.
Compound No. 408 was selected as the compound (I) of the invention and intraperitoneally administered to the rats once a day from the day of operation to the 22nd day. A group to which mecobalamin (made by Gedeon Richter Ltd.) was administered and a group to which 0.9% saline was administered were used as controls. The following items were measured with the lapse of time (on the 1st, 4th, 7th, 10th, 14th, 17th, 21st, and 23rd days after the crushing of the scietic nerves).
(1) Change in the action of the side of the hind paw with the crushed scietic nerve:
By a method similar to the method of Hasegawa [Hasegawa, K., Experientia, 34, 750-751 (1978)], the distance between the first and fifth digits of the hind paw was measured.
The ratio of the measured distance to the normal distance was calculated and expressed in percentage (%).
(2) Change in the weight of muscle
It is known that removal of a nerve or its disorder causes atrophy of the muscle which is under its control, and the atrophy is gradually cured by re-control by the nerve. For this reason, a change in the weight of the muscle, which is quantitative, was selected as an index. Twenty-three days after the operation, the soleus muscles of both sides of paws were extracted under anesthesia with pentobarbital, and their weights were measured. The ratio of the weight of the soleus muscle on the crushed side to that of normal side was calculated and expressed in percentage (%).

[7] = Table 3 Run No. 6, 0.1 mM, control 4.4 ± 0.9

CCn1cc(C=O)c2nc(N3CCNCC3)ncc2c1=O [Compound 744]
Number of dead animals/number of test animals ([1]; Table 6, 500 mg/kg p.o.): 0/5 | Number of dead animals/number of test animals ([1]; Table 6, 1000 mg/kg p.o.): 3/5 | LD50 at 24 h [2]: 550 to 1000 mg/kg

c1ccc(CN2CCN(c3ncccn3)CC2)cc1 [Compound 132]
Number of neurites/cell (mean ± S.D.) ([3]; Table 1 Run No. 5, 1 μg/ml, control 1.96 ± 0.64): 1.95 ± 0.46 neurites/cell | Number of cells (mean ± S.E.) ([3]; Table 1 Run No. 5, 1 μg/ml): 5.63 ± 0.68 × 10^4 /dish | Length of neurites (mean ± S.D.) ([3]; Table 1 Run No. 5, 1 μg/ml, control 46.41 ± 33.28): 52.61 ± 32.09 μm/cell | Number of neurites/cell (mean ± S.D.) ([3]; Table 1 Run No. 5, 10 μg/ml, control 1.96 ± 0.64): 2.03 ± 0.63 neurites/cell | Number of cells (mean ± S.E.) ([3]; Table 1 Run No. 5, 10 μg/ml): 6.26 ± 0.27 × 10^4 /dish | Length of neurites (mean ± S.D.) ([3]; Table 1 Run No. 5, 10 μg/ml, control 46.41 ± 33.28): 52.85 ± 30.00 μm/cell | Cells having neurites with a length at least twice the long diameter of cell/total number of cells ([4]; Table 3 Run No. 1, 0.027 μM, control 2.2 ± 0.8): 4.2 ± 1.0% | Cells having neurites with a length at least twice the long diameter of cell/total number of cells ([4]; Table 3 Run No. 1, 0.27 μM, control 2.2 ± 0.8): 4.3 ± 1.2% | Cells having neurites with a length at least twice the long diameter of cell/total number of cells ([4]; Table 3 Run No. 1, 27 μM, control 2.2 ± 0.8): 4.3 ± 0.5% | Cells having neurites with a length at least twice the long diameter of cell/total number of cells ([4]; Table 3 Run No. 2, 0.1 mM, control 1.9 ± 0.9): 4.4 ± 0.7% | Cells having neurites with a length at least twice the long diameter of cell/total number of cells ([4]; Table 3 Run No. 2, 0.3 mM, control 1.9 ± 0.9): 11.2 ± 1.3% | Cells having neurites with a length at least twice the long diameter of cell/total number of cells ([4]; Table 3 Run No. 2, 1 mM, control 1.9 ± 0.9): 9.1 ± 3.0% | Number of dead animals/number of test animals ([1]; Table 7, 1000 mg/kg p.o.): 0/5

O=C1NCc2nc(N3CCNCC3)ncc21 [Compound 620]
Cells having neurites with a length at least twice the long diameter of cell/total number of cells [4, 7]: 7.2 ± 0.3% | Cells having neurites with a length at least twice the long diameter of cell/total number of cells ([4]; Table 3 Run No. 6, 1 mM, control 4.4 ± 0.9): 10.5 ± 3.2% | Cells having neurites with a length at least twice the long diameter of cell/total number of cells ([4]; Table 3 Run No. 6, 3 mM, control 4.4 ± 0.9): 20.7 ± 2.5% | Cells having neurites with a length at least twice the long diameter of cell/total number of cells ([4]; Table 3 Run No. 9, 0.3 mM, control 2.0 ± 1.0): 6.2 ± 1.5% | Cells having neurites with a length at least twice the long diameter of cell/total number of cells ([4]; Table 3 Run No. 9, 1 mM, control 2.0 ± 1.0): 11.3 ± 3.3% | Cells having neurites with a length at least twice the long diameter of cell/total number of cells ([4]; Table 3 Run No. 9, 3 mM, control 2.0 ± 1.0): 19.6 ± 0.5% | Average of the proportions ([5]; Table 2 neuro-2a Run No. 3, 0.01 μg/ml, control 2.0): 13.01% | Average of the proportions ([5]; Table 2 neuro-2a Run No. 3, 0.1 μg/ml, control 2.0): 15.46% | Average of the proportions ([5]; Table 2 neuro-2a Run No. 3, 1 μg/ml, control 2.0): 9.8% | Number of dead animals/number of test animals ([1]; Table 7, 1000 mg/kg p.o.): 0/5

Cn1[nH]c2nc(N3CCNCC3)ncc2c1=O [Compound 802]
Number of neurites/cell (mean ± S.D.) ([3]; Table 1, Run No. 7 by footnote, 10 μg/ml, control 1.77 ± 0.68): 2.02 ± 0.71 neurites/cell | Length of neurites (mean ± S.D.) ([3]; Table 1, Run No. 7 by footnote, 10 μg/ml, control 42.20 ± 17.75, all *P <0.01): 52.16 ± 19.79 μm/cell | Cells having neurites with a length at least twice the long diameter of cell/total number of cells [4, 7]: 7.5 ± 2.2% | Average of the proportions ([5]; Table 2 neuro-2a Run No. 2, 1 μg/ml, control 7.9): 19.68% | Average of the proportions ([5]; Table 2 neuro-2a Run No. 2, 10 μg/ml, control 7.9): 15.51%

C/C1=C2/[N-][C@H]([C@H](CC(N)=O)[C@@]2(C)CCC(=O)NC[C@@H](C)OP(=O)([O-])O[C@H]2[C@@H](O)[C@@H](n3cnc4cc(C)c(C)cc43)O[C@@H]2CO)[C@]2(C)N=C(/C(C)=C3N=C(/C=C4N=C1[C@@H](CCC(N)=O)C\4(C)C)[C@@H](CCC(N)=O)[C@]\3(C)CC(N)=O)[C@@H](CCC(N)=O)[C@]2(C)CC(N)=O.[CH3-].[Co+3] [Mecobalamin, mecobalamin, reference compound]
Rate of recovery of the interdigit distance ([6]; 21st day, 0.5 mg/kg ip, saline 62.0 ± 2.4, ***P < 0.001): 79.1 ± 2.6% | Rate of recovery of the interdigit distance ([6]; 23rd day, 0.5 mg/kg ip, saline 71.1 ± 3.4, **P < 0.01): 88.3 ± 4.0% | interdigit distance, recovery versus saline ([6]; in words, 21st day): apparent tendency to quicker recovery | Rate of recovery in muscle weight ([6]; soleus muscle, 23rd day, 0.5 mg/kg ip, saline 51.8 ± 1.2): 55.0 ± 3.5%

O=C1CCCc2nc(N3CCNCC3)ncc2N1 [Compound 502]
Length of neurites (mean ± S.D.) ([3]; Table 1, Run No. 7 by footnote, 1 μg/ml, control 42.20 ± 17.75, all *P <0.01): 52.24 ± 23.92 μm/cell | Number of neurites/cell (mean ± S.D.) ([3]; Table 1, last control group (Run No. 7 by footnote), 1 μg/ml, control 1.77 ± 0.68): 1.99 ± 0.65 neurites/cell | Cells having neurites with a length at least twice the long diameter of cell/total number of cells ([4]; Table 3 Run No. 8, 0.3 mM, control 3.7 ± 0.4): 5.5 ± 2.0% | Cells having neurites with a length at least twice the long diameter of cell/total number of cells ([4]; Table 3 Run No. 8, 1 mM, control 3.7 ± 0.4): 7.8 ± 1.2% | Number of dead animals/number of test animals ([1]; Table 7, 1000 mg/kg p.o.): 0/5

— patent publication US4959368A, “Therapeutic agent for neurological diseases” (Mitsui Petrochemical Industries Ltd., priority 1986, dated 1990)
